From ChEMBL document CHEMBL3813678, “Synthesis and anticancer activity of novel 4-morpholino-7,8-dihydro-5H-thiopyrano[4,3-d]pyrimidine derivatives bearing chromone moiety” (Bioorg Med Chem, 2016)

What was measured:
MCF7 = test: Cytotoxicity against human MCF7 cells after 72 hrs by MTT assay; type: functional, cell-based
[1] = Cytotoxicity against human PC3 cells after 72 hrs by MTT assay; type: functional, cell-based, PC-3
A549 = test: Cytotoxicity against human A549 cells after 72 hrs by MTT assay; type: functional, cell-based
HepG2 = test: Cytotoxicity against human HepG2 cells after 72 hrs by MTT assay; type: functional, cell-based
HeLa = test: Cytotoxicity against human HeLa cells after 72 hrs by MTT assay; type: functional, cell-based
[2] = target: T1, Phosphatidylinositol 4,5-bisphosphate 3-kinase catalytic subunit alpha isoform (Homo sapiens, UniProt P42336); test: Inhibition of PI3Kalpha (unknown origin) using PI substrate incubated for 60 mins by kinase-glo luminescence assay
T1 sequence (P42336 whole entry, canonical isoform): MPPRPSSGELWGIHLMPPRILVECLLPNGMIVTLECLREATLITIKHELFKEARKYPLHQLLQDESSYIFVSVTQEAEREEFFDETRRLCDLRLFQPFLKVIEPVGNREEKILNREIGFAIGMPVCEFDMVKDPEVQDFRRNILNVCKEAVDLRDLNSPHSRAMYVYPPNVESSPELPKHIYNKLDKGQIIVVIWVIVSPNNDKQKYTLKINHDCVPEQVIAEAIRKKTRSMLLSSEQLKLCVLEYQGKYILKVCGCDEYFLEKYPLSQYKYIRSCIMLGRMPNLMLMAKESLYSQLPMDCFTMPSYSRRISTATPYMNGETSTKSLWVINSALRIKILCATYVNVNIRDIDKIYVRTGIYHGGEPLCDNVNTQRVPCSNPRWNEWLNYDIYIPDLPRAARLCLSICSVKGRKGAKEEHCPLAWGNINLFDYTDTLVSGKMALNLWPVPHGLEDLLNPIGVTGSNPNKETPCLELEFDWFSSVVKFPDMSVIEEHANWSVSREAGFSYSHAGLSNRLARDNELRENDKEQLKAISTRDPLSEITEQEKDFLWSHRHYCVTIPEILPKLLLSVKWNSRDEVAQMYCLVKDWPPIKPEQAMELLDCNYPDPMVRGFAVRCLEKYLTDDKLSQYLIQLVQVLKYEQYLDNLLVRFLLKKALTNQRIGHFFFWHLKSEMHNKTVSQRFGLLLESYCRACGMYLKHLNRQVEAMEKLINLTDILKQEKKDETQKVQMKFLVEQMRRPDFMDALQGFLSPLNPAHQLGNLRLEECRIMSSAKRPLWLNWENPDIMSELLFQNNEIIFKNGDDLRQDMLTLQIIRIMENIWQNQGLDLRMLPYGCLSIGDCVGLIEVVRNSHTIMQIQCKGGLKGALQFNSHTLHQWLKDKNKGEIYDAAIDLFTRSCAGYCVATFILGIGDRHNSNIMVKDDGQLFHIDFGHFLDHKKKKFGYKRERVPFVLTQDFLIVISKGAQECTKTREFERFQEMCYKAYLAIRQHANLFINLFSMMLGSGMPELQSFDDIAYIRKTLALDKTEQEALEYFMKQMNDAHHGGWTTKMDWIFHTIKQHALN

[3] = target: T2, Serine/threonine-protein kinase mTOR (Homo sapiens, UniProt P42345); test: Inhibition of mTOR (unknown origin) using ULight4E-BP1 peptide as substrate incubated for 1 hr by TR-FRET assay
[4] = target: T1, Phosphatidylinositol 4,5-bisphosphate 3-kinase catalytic subunit alpha isoform; test: Inhibition of PI3Kalpha (unknown origin) at 10 uM using PI substrate incubated for 60 mins by kinase-glo luminescence assay
[5] = target: T2, Serine/threonine-protein kinase mTOR; test: Inhibition of mTOR (unknown origin) at 10 uM using ULight4E-BP1 peptide as substrate incubated for 1 hr by TR-FRET assay
[6] = Homo sapiens, PC-3, 72 h, read-out: IC50
[7] = Homo sapiens, HeLa, 72 h, read-out: IC50
[8] = Homo sapiens, A549, 72 h, read-out: IC50
[9] = Homo sapiens, MCF7, 72 h, read-out: IC50
[10] = Homo sapiens, HepG2, 72 h, read-out: IC50

| SMILES | IC50 [1, 6] [µM] | IC50 (HeLa; [7]) [µM] | IC50 (A549; [8]) [µM] | IC50 (MCF7; [9]) [µM] | IC50 (HepG2; [10]) [µM] | also measured |
| --- | --- | --- | --- | --- | --- | --- |
| O=c1c(/C=N/Nc2nc3c(c(N4CCOCC4)n2)CS(=O)(=O)CC3)coc2ccc(F)cc12 | – | – | – | – | – | IC50 (MCF7; mcf7): Not Active; IC50 ([1]; pc-3): Not Active; IC50 (A549; a549): Not Active |
| O=c1c(/C=N/Nc2nc3c(c(N4CCOCC4)n2)CSCC3)coc2ccc(Cl)cc12 | 32.2 | 13.4 | > 100 | – | – | IC50 (MCF7; mcf7): Not Active; IC50 (HepG2; hepg2): Not Active |
| O=C(O)c1ccc2occ(/C=N/Nc3nc4c(c(N5CCOCC5)n3)CSCC4)c(=O)c2c1 | 14.3 | 10.3 | 10.5 | 11.8 | 8.77 | IC50 ([2]; read-out: IC50): 0.92 µM; IC50 ([3]; read-out: IC50): 1.1 µM |
| CC(C)(C)c1ccc2occ(/C=N/Nc3nc4c(c(N5CCOCC5)n3)CS(=O)(=O)CC4)c(=O)c2c1 | 17.9 | 15.3 | 18.4 | 17.8 | 14.8 | inhibition [4]: 13.8%; inhibition [5]: 44.7% |
| O=c1c(/C=N/Nc2nc3c(c(N4CCOCC4)n2)CSCC3)coc2ccc(F)cc12 | 83.9 | 0.38 | 6.9 | 11.3 | 0.28 | IC50 [3]: Not Active |
| CS(=O)(=O)N1CCN(Cc2cc3nc(-c4cccc5[nH]ncc45)nc(N4CCOCC4)c3s2)CC1 [PICTILISIB] | 0.2 | – | 6.99 | 0.07 | – | – |
| O=c1c(/C=N/Nc2nc3c(c(N4CCOCC4)n2)CSCC3)coc2ccc([N+](=O)[O-])cc12 | 34.9 | 11.5 | 19.8 | 21.4 | 12.7 | inhibition [4]: 16.7%; inhibition [5]: 66.4% |
| COc1cc(/C=N/Nc2nc3c(c(N4CCOCC4)n2)CSCC3)cc(OC)c1O | – | – | 7.43 | 5.84 | – | IC50 [2]: Not Active |
| CCc1ccc2occ(/C=N/Nc3nc4c(c(N5CCOCC5)n3)CSCC4)c(=O)c2c1 | 23.8 | 10.1 | 21.1 | 11.2 | 13.9 | IC50 [3]: Not Active |
| O=c1c(/C=N/Nc2nc3c(c(N4CCOCC4)n2)CS(=O)(=O)CC3)coc2ccc(Br)cc12 | 65.1 | – | 50.5 | 60.3 | – | IC50 (HepG2; hepg2): Not Active; IC50 (HeLa; hela): Not Active |
| O=c1c(/C=N/Nc2nc3c(c(N4CCOCC4)n2)CSCC3)coc2ccc(Br)cc12 | > 100 | > 100 | > 100 | > 100 | > 100 | – |
| CC(C)(C)c1ccc2occ(/C=N/Nc3nc4c(c(N5CCOCC5)n3)CSCC4)c(=O)c2c1 | 15.3 | 0.17 | 11.5 | 3.85 | 1.84 | inhibition [4]: 24%; inhibition [5]: 36.4% |
| CC(C)c1ccc2occ(/C=N/Nc3nc4c(c(N5CCOCC5)n3)CSCC4)c(=O)c2c1 | 17.3 | 15.5 | 9.5 | 13.1 | 9.95 | IC50 [3]: Not Active |
| CCc1ccc2occ(/C=N/Nc3nc4c(c(N5CCOCC5)n3)CS(=O)(=O)CC4)c(=O)c2c1 | 30.2 | 20.2 | 26.4 | 28.9 | 25.9 | – |
| CC(C)c1ccc2occ(/C=N/Nc3nc4c(c(N5CCOCC5)n3)CS(=O)(=O)CC4)c(=O)c2c1 | 34.9 | 26.5 | 25.7 | 27.3 | 27.9 | – |
| O=c1c(/C=N/Nc2nc3c(c(N4CCOCC4)n2)CS(=O)(=O)CC3)coc2ccc([N+](=O)[O-])cc12 | – | – | – | – | – | IC50 (MCF7; mcf7): Not Active; IC50 ([1]; pc-3): Not Active; IC50 (A549; a549): Not Active |
| Cc1ccc2occ(/C=N/Nc3nc4c(c(N5CCOCC5)n3)CSCC4)c(=O)c2c1 | > 100 | 15.9 | 42.5 | 36.6 | – | IC50 (HepG2; hepg2): Not Active |
| O=c1c(/C=N/Nc2nc3c(c(N4CCOCC4)n2)CS(=O)(=O)CC3)coc2ccc(Cl)cc12 | 46.9 | 30.4 | 17.9 | 23.5 | 38.1 | – |
| Cc1ccc2occ(/C=N/Nc3nc4c(c(N5CCOCC5)n3)CS(=O)(=O)CC4)c(=O)c2c1 | 38 | 19.2 | 20.8 | 22.1 | 23.4 | – |
| O=c1c(/C=N/Nc2nc3c(c(N4CCOCC4)n2)CSCC3)coc2ccc(O)cc12 | > 100 | – | > 100 | – | – | IC50 (MCF7; mcf7): Not Active; IC50 (HepG2; hepg2): Not Active; IC50 (HeLa; hela): Not Active |
| O=C(O)c1ccc2occ(/C=N/Nc3nc4c(c(N5CCOCC5)n3)CS(=O)(=O)CC4)c(=O)c2c1 | – | – | – | – | – | IC50 (MCF7; mcf7): Not Active; IC50 ([1]; pc-3): Not Active; IC50 (A549; a549): Not Active |
| O=c1c(/C=N/Nc2nc3c(c(N4CCOCC4)n2)CS(=O)(=O)CC3)coc2ccc(O)cc12 | – | – | – | – | – | IC50 (MCF7; mcf7): Not Active; IC50 ([1]; pc-3): Not Active; IC50 (A549; a549): Not Active |
